Measurements as given in patent US11078207B2, “Substituted pyrrolo[2,3-d]pyrimidines as HER2 inhibitors” (TAIHO PHARMACEUTICAL CO., LTD., priority 2019, dated 2021).
Like-named read-outs stand apart in the source and are kept apart here.

Experiments:
[1] = Evaluation of oral absorbability; format: in vivo, BALB/cA mice; conditions: mouse; plasma, oral 50 mg/kg/day, BALB/cA mice
Procedure: The compound of the present invention was suspended or dissolved in 0.5% HPMC aqueous solution and 0.1 N hydrochloric acid, and the obtained suspension or solution was orally administered to BALB/cA mice (CLEA Japan, Inc.) at a dose of 50 mg/kg/day. At 0.5, 1, 2, 4 and 6 hours after completion of the oral administration, blood was collected from the facial vein over time, so as to obtain plasma. The concentration of the compound in the obtained plasma was measured by LC-MS/MS, and the oral absorbability of the present compound was evaluated.

SK-BR-3 cells = experiment: Growth inhibitory activity against HER2 expressing cell line SK-BR-3; format: cell-based; conditions: Homo sapiens, SK-BR-3, 72 h; 3 days, CellTiter-Glo 2.0
Procedure: SK-BR-3 cells as a HER2 overexpressing human breast cancer cell line were suspended in a McCoy's 5a medium (manufactured by Life Technologies) supplemented with 10% fetal bovine serum. The cell suspension was seeded in each well of a 384-well flat-bottom microplate, and was then cultured in a 5% carbon dioxide gas-containing culture vessel at 37° C. for 1 day. Thereafter, the compound of the present invention was dissolved in DMSO, and the compound was diluted to 500 times the final concentration in DMSO. The compound in the DMSO solution was diluted with DMSO solution or the medium used in the suspension of the cells, and the obtained solution was then added to each well of the culture plate so that the final concentration of DMSO was 0.2%. The obtained mixture was further cultured in the 5% carbon dioxide gas-containing culture vessel at 37° C. for 3 days. After completion of the culture for 3 days in the presence of the compound, the cells were counted using CellTiter-Glo 2.0 (manufactured by Promega), and the growth inhibition percentage was then calculated according to the following equation. […] Growth inhibitory percentage (%)=(C−T)/(C)×100 T: Emission intensity from the well to which the test compound was added C: Emission intensity from the well to which the test compound was not added

HER2 = biological target: T1, HER2 (Homo sapiens, UniProt P04626); experiment: Inhibitory effect (in vitro) on HER2 phosphorylation activity; format: biochemical; conditions: recombinant human HER2, ATP 5 μM, 25° C. 30 minutes
T1 construct: purchased Carna Biosciences, Inc
T1 sequence (P04626 23-1255): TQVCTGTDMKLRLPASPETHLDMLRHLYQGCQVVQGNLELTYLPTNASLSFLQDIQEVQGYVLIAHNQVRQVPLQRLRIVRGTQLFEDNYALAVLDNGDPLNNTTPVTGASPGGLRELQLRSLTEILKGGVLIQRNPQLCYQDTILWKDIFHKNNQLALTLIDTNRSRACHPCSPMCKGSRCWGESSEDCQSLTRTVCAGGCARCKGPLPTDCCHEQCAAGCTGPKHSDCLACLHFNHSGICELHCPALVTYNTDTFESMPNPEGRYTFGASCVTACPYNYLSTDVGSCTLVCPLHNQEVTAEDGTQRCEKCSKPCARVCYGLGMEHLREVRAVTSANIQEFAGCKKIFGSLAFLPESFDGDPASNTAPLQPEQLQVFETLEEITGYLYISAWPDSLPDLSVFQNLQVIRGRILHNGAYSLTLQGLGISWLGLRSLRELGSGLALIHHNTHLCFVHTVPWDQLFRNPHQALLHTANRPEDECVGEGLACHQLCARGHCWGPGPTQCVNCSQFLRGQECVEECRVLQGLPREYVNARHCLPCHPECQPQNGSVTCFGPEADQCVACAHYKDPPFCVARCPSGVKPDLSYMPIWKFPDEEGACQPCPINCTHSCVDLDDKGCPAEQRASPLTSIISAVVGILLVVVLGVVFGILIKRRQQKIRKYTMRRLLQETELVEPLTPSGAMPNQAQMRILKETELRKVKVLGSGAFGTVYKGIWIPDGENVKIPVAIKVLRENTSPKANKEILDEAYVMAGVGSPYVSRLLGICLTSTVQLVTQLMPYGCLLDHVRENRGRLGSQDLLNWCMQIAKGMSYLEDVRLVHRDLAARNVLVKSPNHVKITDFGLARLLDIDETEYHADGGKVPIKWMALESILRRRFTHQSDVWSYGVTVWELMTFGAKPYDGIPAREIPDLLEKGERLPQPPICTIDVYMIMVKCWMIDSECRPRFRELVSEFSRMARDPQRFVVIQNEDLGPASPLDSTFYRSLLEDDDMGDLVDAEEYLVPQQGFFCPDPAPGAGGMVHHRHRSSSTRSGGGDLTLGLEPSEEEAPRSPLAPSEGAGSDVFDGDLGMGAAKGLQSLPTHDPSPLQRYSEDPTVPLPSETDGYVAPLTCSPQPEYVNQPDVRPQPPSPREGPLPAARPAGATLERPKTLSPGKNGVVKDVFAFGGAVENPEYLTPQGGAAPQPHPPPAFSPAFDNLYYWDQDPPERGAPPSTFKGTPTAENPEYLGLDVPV
From the text: In order to determine conditions for a method of measuring the in vitro inhibitory activity of a compound against HER2 phosphorylation activity, based on the report regarding a HER2 kinase reaction using, as a substrate, a peptide having the same sequence (5-FAM-[…]-CONH2) as that of ProfilerPro Peptide 22 of PerkinElmer (Xie H et al., PLoS One. 2011; 6(7): e21487), ProfilerPro Peptide 22 was used as a substrate. A purified recombinant human HER2 protein used in the present test was purchased from Carna Biosciences, Inc. Upon the measurement of the inhibitory activity of the compound, first, the compound of the present invention was diluted stepwise with dimethyl sulfoxide (DMSO). […] To the reaction solution, EDTA was added to a final concentration of 30 mM, so as to terminate the reaction. Finally, using LabChip (registered trademark) EZ Reader II (PerkinElmer), an unphosphorylated substrate peptide (S) and a phosphorylated peptide (P) were separated and detected according to microchannel capillary electrophoresis.

NCI-N87 cells = experiment: Growth inhibitory activity against HER2 expressing cell line NCI-N87; format: cell-based; conditions: Homo sapiens, NCI-N87, 72 h; 3 days, CellTiter-Glo 2.0
Procedure: NCI-N87 cells as a HER2 overexpressing human stomach cancer cell line (American Type Culture Collection, Cat No. ATCC (registered trademark) CRL-5822) were suspended in an RPMI640 medium (Wako Pure Chemical Industries, Ltd.) supplemented with 10% fetal bovine serum. Subsequently, the cell suspension was seeded in each well of a 96-well flat-bottom microplate, and was then cultured in a 5% carbon dioxide gas-containing culture vessel at 37° C. for 1 day. Thereafter, the compound of the present invention was dissolved in DMSO, and the compound was diluted to 1000 times the final concentration in DMSO. The compound in the DMSO solution was diluted with the medium used in the suspension of the cells, and the obtained solution was then added to each well of the culture plate, so that the final concentration of DMSO became 0.1%. Regarding a control well, DMSO was diluted with the medium used in the suspension of the cells, and the obtained solution was then added to each well of the culture plate, so that the final concentration of DMSO became 0.1%. After addition of a drug solution, the obtained mixture was further cultured in the 5% carbon dioxide gas-containing culture vessel at 37° C. for 3 days. After completion of the culture for 3 days in the presence of the compound, the cells were counted using CellTiter-Glo 2.0 (manufactured by Promega) in accordance with the protocols recommended by Promega. The growth inhibition percentage was calculated according to the following equation. […] Growth inhibitory percentage (%)=(C−T)/(C)×100 T: Emission intensity from the well to which the test compound was added C: Emission intensity from the well to which the test compound was not added

[2] = Evaluation of brain penetration properties; format: in vivo, BALB/cA mice; conditions: mouse, 0.5 hours after oral 50 mg/kg/day, BALB/cA mice; for Kp at 0.5 h: read-out: Kp value (Compound concentration in brain/plasma)
[3] = biological target: HER2 exon 20 insertion mutant (HER2ex20insYVMA, A775_G776insYVMA) (Homo sapiens, UniProt P04626, DUP772-775); experiment: Inhibitory action (in vitro) against HER2 exon 20 insertion mutant phosphorylation activity; format: biochemical; conditions: 30 min pre-incubation, ATP 200 μM, 25° C. 220 minutes
Chain of HER2 exon 20 insertion mutant (HER2ex20insYVMA, A775_G776insYVMA) (P04626 with tags, fused parts or gaps DUP772-775): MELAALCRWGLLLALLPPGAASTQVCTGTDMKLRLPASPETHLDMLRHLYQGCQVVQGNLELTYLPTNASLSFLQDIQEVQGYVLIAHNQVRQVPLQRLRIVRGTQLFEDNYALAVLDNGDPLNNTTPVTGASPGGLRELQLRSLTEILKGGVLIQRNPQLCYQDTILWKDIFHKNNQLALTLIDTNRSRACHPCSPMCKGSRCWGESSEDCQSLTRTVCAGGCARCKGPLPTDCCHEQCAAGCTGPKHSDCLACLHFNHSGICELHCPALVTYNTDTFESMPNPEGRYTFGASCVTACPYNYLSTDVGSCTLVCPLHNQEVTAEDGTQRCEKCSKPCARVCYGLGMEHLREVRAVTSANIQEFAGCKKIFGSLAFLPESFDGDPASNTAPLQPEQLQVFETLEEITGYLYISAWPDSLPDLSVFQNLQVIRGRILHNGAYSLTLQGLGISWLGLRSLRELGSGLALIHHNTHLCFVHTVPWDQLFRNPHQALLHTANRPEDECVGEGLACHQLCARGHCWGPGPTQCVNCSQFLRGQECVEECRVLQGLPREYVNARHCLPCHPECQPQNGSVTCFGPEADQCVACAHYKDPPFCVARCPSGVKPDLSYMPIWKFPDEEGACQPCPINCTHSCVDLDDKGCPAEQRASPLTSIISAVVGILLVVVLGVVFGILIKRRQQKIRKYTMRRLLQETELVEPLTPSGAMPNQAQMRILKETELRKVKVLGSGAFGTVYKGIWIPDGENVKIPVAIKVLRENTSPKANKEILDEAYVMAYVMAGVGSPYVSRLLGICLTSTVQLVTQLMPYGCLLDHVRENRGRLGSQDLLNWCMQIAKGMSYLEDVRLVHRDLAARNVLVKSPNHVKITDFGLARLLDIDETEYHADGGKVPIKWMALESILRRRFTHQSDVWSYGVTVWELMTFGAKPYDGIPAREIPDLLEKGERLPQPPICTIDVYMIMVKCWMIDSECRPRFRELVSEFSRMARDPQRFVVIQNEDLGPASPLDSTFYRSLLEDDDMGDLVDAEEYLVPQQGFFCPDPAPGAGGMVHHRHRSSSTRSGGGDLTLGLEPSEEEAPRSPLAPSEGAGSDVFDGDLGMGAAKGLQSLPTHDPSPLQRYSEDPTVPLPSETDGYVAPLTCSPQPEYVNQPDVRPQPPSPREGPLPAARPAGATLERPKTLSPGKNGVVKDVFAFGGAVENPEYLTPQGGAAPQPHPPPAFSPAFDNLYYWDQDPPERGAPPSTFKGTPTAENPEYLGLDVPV
From the text: In order to determine conditions for a method of measuring the in vitro inhibitory activity of a compound against HER2 exon 20 insertion mutant phosphorylation activity, as in the case of HER2, ProfilerPro Peptide 22 was used as a substrate. A purified recombinant human HER2 exon 20 insertion mutant (A775_G776insYVMA) protein is shown in SEQ ID NO: 7, and was purchased from SignalChem. Upon the measurement of the inhibitory activity of the compound, first, the compound of the present invention was diluted stepwise with dimethyl sulfoxide (DMSO). Subsequently, the HER2 exon 20 insertion mutant protein and the compound of the present invention in DMSO solution (final concentration of DMSO: 5%) were added into a buffer for the kinase reaction (13.5 mM Tris (pH 7.5), 2 mM dithiothreitol, and 0.009% Tween 20), and the obtained mixture was then pre-incubated at 25° C. for 30 minutes. Thereafter, the substrate peptide (final concentration: 1 μM), manganese chloride (final concentration: 25 mM), magnesium chloride (final concentration: 20 mM), and ATP (final concentration: 200 μM) were added into the reaction mixture, and the thus obtained mixture was then incubated at 25° C. for 220 minutes, so that the kinase reaction was carried out. To the reaction solution, EDTA was added to a final concentration of 30 mM, so as to terminate the reaction. Finally, using LabChip (registered trademark) EZ Reader II (PerkinElmer), an unphosphorylated substrate peptide (S) and a phosphorylated peptide (P) were separated and detected according to microchannel capillary electrophoresis.

[4] = brain, read-out: Compound concentration in brain
[5] = plasma, read-out: Compound concentration in plasma

| Structure (SMILES) | AUC(0-t) [1] [µM·h] | IC50 (SK-BR-3 cells) [nM] | IC50 (HER2) [nM] | concentration at 0.5 h [2, 4] [µM] | Kp at 0.5 h ([2]; brain) | concentration at 0.5 h [2, 5] [µM] | IC50 [3] [nM] | IC50 (NCI-N87 cells) [nM] |
| --- | --- | --- | --- | --- | --- | --- | --- | --- |
| C=CC(=O)N1C[C@H](n2c(C#CC)c(C(=O)N[C@H](C)c3cccc(Cl)c3)c3c(N)ncnc32)C[C@@H]1C [Example 6, 7-((3R,5S)-1-acryloyl-5-methylpyrrolidin-3-yl)-4-amino-N—((R)-1-(3-chlorophenyl)ethyl)-6-(prop-1-yn-1-yl)-7H-pyrrolo[2,3-d]pyrimidine-5-carboxamide] | 17 | 10 | 2.8 | 1.3 | 0.17 | 7.5 | < 0.3 | 8.5 |
| C=CC(=O)N1C[C@H](n2c(C#CC)c(C(=O)N[C@H](C)c3cc(F)cc(F)c3)c3c(N)ncnc32)C[C@@H]1C [Example 1, 7-(R)-((3R,5S)-1-acryloyl-5-methylpyrrolidin-3-yl)-4-amino-N—((R)-1-(3,5-difluorophenyl)ethyl)-6-(prop-1-yn-1-yl)-7H-pyrrolo[2,3-d]pyrimidine-5-carboxamide] | 50 | 9.3 | 2.7 | 1.4 | 0.15 | 9.1 | 0.34 | 10.7 |
| C=CC(=O)N1C[C@H](n2c(C#CC)c(C(=O)N[C@H](CC)c3ccccc3)c3c(N)ncnc32)C[C@@H]1C [Example 4, 7-((3R,5S)-1-acryloyl-5-methylpyrrolidin-3-yl)-4-amino-N—((R)-1-phenylpropyl)-6-(prop-1-yn-1-yl)-7H-pyrrolo[2,3-d]pyrimidine-5-carboxamide] | 12 | 5.6 | 3.9 | 2.8 | 0.34 | 8.3 | 0.37 | 5.6 |
| C=CC(=O)N1C[C@H](n2c(C#CC)c(C(=O)N[C@H](C)c3ccccc3)c3c(N)ncnc32)C[C@@H]1CC [Example 16, 7-((3R,5S)-1-acryloyl-5-ethylpyrrolidin-3-yl)-4-amino-N—((R)-1-phenylethyl)-6-(prop-1-yn-1-yl)-7H-pyrrolo[2,3-d]pyrimidine-5-carboxamide] | 15 | 1.4 | 3.3 | 4.4 | 0.35 | 12 | 0.44 | 0.9 |

Now from value to compound, other results behind:

| AUC(0-t) [1] [µM·h] | IC50 (SK-BR-3 cells) [nM] | IC50 (HER2) [nM] | concentration at 0.5 h [2, 4] [µM] | Kp at 0.5 h ([2]; brain) | concentration at 0.5 h [2, 5] [µM] | IC50 [3] [nM] | Structure (SMILES) | IC50 (NCI-N87 cells) [nM] |
| --- | --- | --- | --- | --- | --- | --- | --- | --- |
| 36 | 17 | 3.4 | 3.2 | 0.29 | 11 | 0.39 | C=CC(=O)N1C[C@H](n2c(C#CC(C)(C)C)c(C(=O)N[C@H](C)c3ccccc3)c3c(N)ncnc32)C[C@@H]1C [Example 12, 7-((3R,5S)-1-acryloyl-5-methylpyrrolidin-3-yl)-4-amino-6-(3,3-dimethylbut-1-yn-1-yl)-N—((R)-1-phenylethyl)-7H-pyrrolo[2,3-d]pyrimidine-5-carboxamide] | 15 |
| 51 | 4.2 | 5.6 | 2.4 | 0.18 | 13 | 0.32 | C=CC(=O)N1C[C@H](n2c(C#CC3CC3)c(C(=O)NC(C)(C)c3ccccc3)c3c(N)ncnc32)C[C@@H]1C [Example 9, 7-((3R,5S)-1-acryloyl-5-methylpyrrolidin-3-yl)-4-amino-6-(cyclopropylethynyl)-N-(2-phenylpropan-2-yl)-7H-pyrrolo[2,3-d]pyrimidine-5-carboxamide] | 6.2 |
| 15 | 2.8 | 2.5 | 1.8 | 0.27 | 6.6 | < 0.3 | C=CC(=O)N1C[C@H](n2c(C#CC)c(C(=O)N[C@H](C)c3ccccc3)c3c(N)ncnc32)C[C@@H]1C [Example 2, 7-((3R,5S)-1-acryloyl-5-methylpyrrolidin-3-yl)-4-amino-N—((R)-1-phenylethyl)-6-(prop-1-yn-1-yl)-7H-pyrrolo[2,3-d]pyrimidine-5-carboxamide] | 3 |
| 20 | 4 | 7.7 | 2.2 | 0.15 | 15 | 0.38 | C=CC(=O)N1C[C@H](n2c(C#CC)c(C(=O)NC(C)(C)c3ccccc3F)c3c(N)ncnc32)C[C@@H]1C [Example 5, 7-((3R,5S)-1-acryloyl-5-methylpyrrolidin-3-yl)-4-amino-N-(2-(2-fluorophenyl)propan-2-yl)-6-(prop-1-yn-1-yl)-7H-pyrrolo[2,3-d]pyrimidine-5-carboxamide] | 7 |
| 50 | 13 | 2.2 | 2.4 | 0.18 | 13 | < 0.3 | C=CC(=O)N1C[C@H](n2c(C#CC3CC3)c(C(=O)N[C@H](C)c3cccc(F)c3F)c3c(N)ncnc32)C[C@@H]1C [Example 10, 7-((3R,5S)-1-acryloyl-5-methylpyrrolidin-3-yl)-4-amino-6-(cyclopropylethynyl)-N—((R)-1-(2,3-difluorophenyl)ethyl)-7H-pyrrolo[2,3-d]pyrimidine-5-carboxamide] | 10.5 |
